Non-standard residues stand in square brackets, D forms with d. Residues, ends and D or L forms follow the SMILES beside them. Cha = N[C@@H](CC1CCCCC1)C(=O)O
How the values were obtained:
DR2w2b = system: DR2w2b; set-up: species or system human; conditions: read-out: Binding Activity DR2wB2, IC50
[1] = system: PBMC from normal individuals; experiment: In vitro T cell proliferative responses of human PBMC ([3H]thymidine incorporation); assay type: cell-based; conditions: for AVERAGE S.I. / AVERAGE ΔMAX CPM: average of 5 donors; for X144 (Δmax cpm) / X144 S.I.: donor X144; for X162 (Δmax cpm) / X162 S.I.: donor X162; for X349 (Δmax cpm) / X349 S.I.: donor X349; for X372 (Δmax cpm) / X372 S.I.: donor X372; for X460 (Δmax cpm) / X460 S.I.: donor X460
DR3 = system: DR3; set-up: species or system human; conditions: read-out: Binding Activity DR3, IC50
DR5 = system: DR5; set-up: species or system human; conditions: read-out: Binding Activity DR5, IC50
DQ3.1 = system: DQ3.1; set-up: species or system human; conditions: read-out: Binding Activity DQ3.1, IC50
DRw53 = DRw53 (Homo sapiens, UniProt P01903+P13762); experiment: biochemical; assay type: binding
Chain of DRw53 (P01903 26-254): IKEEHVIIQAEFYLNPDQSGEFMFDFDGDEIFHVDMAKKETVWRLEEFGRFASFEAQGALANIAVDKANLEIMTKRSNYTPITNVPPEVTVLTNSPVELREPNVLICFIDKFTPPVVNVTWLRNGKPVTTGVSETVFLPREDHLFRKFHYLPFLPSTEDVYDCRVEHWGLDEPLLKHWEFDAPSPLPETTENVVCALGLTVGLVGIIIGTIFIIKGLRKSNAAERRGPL
Chain of DRw53 (P13762 30-266): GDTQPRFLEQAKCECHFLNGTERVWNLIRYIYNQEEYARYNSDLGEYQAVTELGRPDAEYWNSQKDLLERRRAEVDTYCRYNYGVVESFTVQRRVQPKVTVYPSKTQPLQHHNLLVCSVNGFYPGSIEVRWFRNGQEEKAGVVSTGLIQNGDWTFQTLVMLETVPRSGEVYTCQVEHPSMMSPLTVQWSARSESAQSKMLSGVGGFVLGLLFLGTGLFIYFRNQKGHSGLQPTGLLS

P. yoelii sporozoites = experiment: Inhibition of liver stage development assay (ILSDA), mouse hepatocytes infected with P. yoelii sporozoites; assay type: cell-based; conditions: sera of immunized mice, dilution not stated
Method: In certain experiments, peptides were emulsified in complete Freund's adjuvant (CFA) and injected subcutaneously (S.C.) at the base of the tail in 100 μl volume containing 100 μg of peptide. Mice were boosted with 100 μg of peptide emulsified in 100 μl of incomplete Freund's adjuvant (IFA) 1 month later. Mice were bled just prior to boosting, and 2 weeks after boosting.
All cell culture reagents were obtained from quality Biological, Gaithersburg, Md. The slides were incubated overnight at 37° C. in a 5% CO2/95% air environment. The medium was changed the following day and fresh medium containing dexamethasone (7×10^−5) was added to the cultures.
The 17XNL (nonlethal) strain of P. yoelii or the NF54 strain of P. falciparum were used for murine and human hepatocyte in vitro infections, respectively.
Briefly, 25 μl of the serum samples, diluted to 2× their final concentration, were added to triplicate chamber-slide wells. P. yoeilli or P. falciparum sporozoites, 75,000/well, were then added in a volume of 25 μl to the mouse or human hepatocyte cultures respectively. The cultures were incubated for 3 h, then washed extensively with fresh medium to remove unattached sporozoites. The infected hepatocytes were then incubated for a further 2 (P. yoelii) or 5 days (P. falciparum) with the medium being changed each day of culture. The slides were fixed and immunostained with either a P. yoelii- or P. falciparum-specific monoclonal antibody. Schizonts were counted from the triplicate cultures and the percent inhibition determined as follows: control−test/control×100. Sera from mice injected with CFA (first dose) and IFA (second and third doses) served as the negative controls.

| SMILES | IC50 (DR2w2b) [nM] | AVERAGE S.I. ([1]; 2nd Stimulation) | AVERAGE ΔMAX CPM ([1]; 2nd Stimulation) [cpm] | X144 (Δmax cpm) ([1]; 2nd Stimulation) [cpm] | X144 S.I. ([1]; 2nd Stimulation) | X162 (Δmax cpm) ([1]; 2nd Stimulation) [cpm] | X162 S.I. ([1]; 2nd Stimulation) | X349 (Δmax cpm) ([1]; 2nd Stimulation) [cpm] | X349 S.I. ([1]; 2nd Stimulation) | X372 (Δmax cpm) ([1]; 2nd Stimulation) [cpm] | X372 S.I. ([1]; 2nd Stimulation) | X460 (Δmax cpm) ([1]; 2nd Stimulation) [cpm] | X460 S.I. ([1]; 2nd Stimulation) | AVERAGE S.I. ([1]; 3rd Stimulation) | AVERAGE ΔMAX CPM ([1]; 3rd Stimulation) [cpm] | X144 (Δmax cpm) ([1]; 3rd Stimulation) [cpm] | X144 S.I. ([1]; 3rd Stimulation) | X162 (Δmax cpm) ([1]; 3rd Stimulation) [cpm] | X162 S.I. ([1]; 3rd Stimulation) | X349 (Δmax cpm) ([1]; 3rd Stimulation) [cpm] | also measured |
| --- | --- | --- | --- | --- | --- | --- | --- | --- | --- | --- | --- | --- | --- | --- | --- | --- | --- | --- | --- | --- | --- |
| CC(C)C[C@H](NC(=O)[C@@H](NC(=O)[C@H](CC(N)=O)NC(=O)[C@H](C)NC(=O)[C@H](C)NC(=O)[C@@H](NC(=O)[C@H](CC1CCCCC1)NC(=O)[C@H](CCCCN)NC(=O)[C@@H](C)N)C(C)C)[C@@H](C)O)C(=O)N[C@@H](CCCCN)C(=O)N[C@@H](C)C(=O)N[C@@H](C)C(=O)N[C@H](C)C(N)=O [965.08] | 3.8 | 1.7 | 11208 | 8440 | 1.3 | 9234 | 2.6 | 9065 | 1.8 | 23017 | 1.6 | 6286 | 1.4 | 2 | 12070 | 3559 | 1.4 | 14622 | 2.3 | 31639 | X349 S.I. ([1]; 3rd Stimulation): 2.8; X372 (Δmax cpm) ([1]; 3rd Stimulation): 8710 cpm; X372 S.I. ([1]; 3rd Stimulation): 1.9; X460 (Δmax cpm) ([1]; 3rd Stimulation): 1820 cpm; X460 S.I. ([1]; 3rd Stimulation): 1.6; IC50 (DR3): 250 nM; IC50 (DR5): 8 nM; IC50 (DQ3.1): > 10000 nM |
| CC(C)C[C@H](NC(=O)[C@@H](NC(=O)[C@H](Cc1ccc(O)cc1)NC(=O)[C@H](C)NC(=O)[C@H](C)NC(=O)[C@@H](NC(=O)[C@H](CC1CCCCC1)NC(=O)[C@H](CCCCN)NC(=O)[C@@H](C)N)C(C)C)[C@@H](C)O)C(=O)N[C@@H](CCCCN)C(=O)N[C@@H](C)C(=O)N[C@@H](C)C(=O)N[C@H](C)C(N)=O [965.09] | 7.4 | 1.9 | 12059 | 13693 | 1.8 | 10710 | 1.1 | 18079 | 3.8 | 17813 | 1.6 | 0 | 1 | 4.1 | 22599 | 14087 | 2.6 | 35635 | 5.2 | 31811 | IC50 (DRw53): 86.4 nM; X349 S.I. ([1]; 3rd Stimulation): 5.5; X372 (Δmax cpm) ([1]; 3rd Stimulation): 29159 cpm; X372 S.I. ([1]; 3rd Stimulation): 4.4; X460 (Δmax cpm) ([1]; 3rd Stimulation): 2301 cpm; X460 S.I. ([1]; 3rd Stimulation): 2.9; IC50 (DR3): 250 nM; IC50 (DR5): 5.4 nM; IC50 (DQ3.1): > 10000 nM |
| CC(C)C[C@H](NC(=O)[C@@H](NC(=O)[C@H](C)NC(=O)[C@H](C)NC(=O)[C@H](C)NC(=O)[C@@H](NC(=O)[C@H](CC1CCCCC1)NC(=O)[C@H](CCCCN)NC(=O)[C@@H](C)N)C(C)C)[C@@H](C)O)C(=O)N[C@@H](CCCCN)C(=O)N[C@@H](C)C(=O)N[C@@H](C)C(=O)N[C@H](C)C(N)=O [965.16] | 6.1 | 1.3 | 1843 | 4388 | 1.2 | 4090 | 2.1 | 0 | 1 | 736 | 1 | 0 | 1 | 1.5 | 5955 | 5220 | 1.5 | 4762 | 1.9 | 9316 | X349 S.I. ([1]; 3rd Stimulation): 1.6; X372 (Δmax cpm) ([1]; 3rd Stimulation): 10439 cpm; X372 S.I. ([1]; 3rd Stimulation): 1.7; X460 (Δmax cpm) ([1]; 3rd Stimulation): 37 cpm; X460 S.I. ([1]; 3rd Stimulation): 1; IC50 (DR5): 16.7 nM; IC50 (DQ3.1): > 10000 nM |
| CC(C)C[C@H](NC(=O)[C@@H](NC(=O)[C@H](Cc1c[nH]c2ccccc12)NC(=O)[C@H](C)NC(=O)[C@H](C)NC(=O)[C@@H](NC(=O)[C@H](CC1CCCCC1)NC(=O)[C@H](CCCCN)NC(=O)[C@H](C)N)C(C)C)[C@@H](C)O)C(=O)N[C@@H](CCCCN)C(=O)N[C@@H](C)C(=O)N[C@@H](C)C(=O)N[C@@H](C)C(N)=O [965.17] | 5.9 | 2.4 | 12738 | 17391 | 1.7 | 6323 | 2 | 26512 | 5.6 | 8471 | 1.3 | 4994 | 1.3 | 3.5 | 25399 | 32665 | 4.1 | 28065 | 4.1 | 31983 | IC50 (DRw53): 170 nM; X349 S.I. ([1]; 3rd Stimulation): 4; X372 (Δmax cpm) ([1]; 3rd Stimulation): 30661 cpm; X372 S.I. ([1]; 3rd Stimulation): 3.2; X460 (Δmax cpm) ([1]; 3rd Stimulation): 3619 cpm; X460 S.I. ([1]; 3rd Stimulation): 2.2; IC50 (DQ3.1): > 10000 nM |
| CC(C)C[C@H](NC(=O)[C@@H](NC(=O)[C@H](Cc1c[nH]c2ccccc12)NC(=O)[C@H](C)NC(=O)[C@H](C)NC(=O)[C@@H](NC(=O)[C@H](CC1CCCCC1)NC(=O)[C@H](CCCCN)NC(=O)[C@@H](C)N)C(C)C)[C@@H](C)O)C(=O)N[C@@H](CCCCN)C(=O)N[C@@H](C)C(=O)N[C@H](C)C(=O)N[C@@H](CCC(N)=O)C(=O)NCC(=O)N1CCC[C@H]1C(=O)NCC(=O)N[C@@H](C)C(=O)N1CCC[C@H]1C(=O)N[C@@H](CCC(N)=O)C(=O)NCC(=O)N1CCC[C@H]1C(=O)NCC(=O)N[C@@H](C)C(=O)N1CCC[C@H]1C(=O)N[C@@H](CCC(N)=O)C(=O)NCC(=O)N1CCC[C@H]1C(=O)NCC(=O)N[C@@H](C)C(=O)N1CCC[C@H]1C(=O)N[C@@H](CCC(N)=O)C(=O)NCC(=O)N1CCC[C@H]1C(=O)NCC(=O)N[C@@H](C)C(=O)N1CCC[C@H]1C(=O)NCC(=O)NCC(=O)N[C@@H](CO)C(=O)O [PADRE ®-PyB, aKXVAAWTLKAa(QGPGAP)4GGS] (H-[dA]K[Cha]VAAWTLKA[dA]QGPGAPQGPGAPQGPGAPQGPGAPGGS-OH; N-terminus and C-terminus assumed) | – | – | – | – | – | – | – | – | – | – | – | – | – | – | – | – | – | – | – | – | inhibition of P. yoelii sporozoite invasion and development in murine hepatocytes (P. yoelii sporozoites): approximately 90% |

Reference: patent publication US20050049197A1, “Induction of immune response against desired determinants” (Epimmune Inc., priority 1993, published 2005)
